For data set [1] the following is noted: unmodified precursor dye; cited from earlier work.
Data set [2] in a line: Solubility of the dyes in water, mineral oil and organic solvents. Format: physicochemical. To be noted: for solubility in organic solvents: which solvents dissolve the dye.
The nature of data set [3]: Stability of kaolin pigment powder in oil and in water. Type of data set: physicochemical. To be noted: product deposited on kaolin; oil / mineral oil and water. On the procedure: A small amount of the product was dissolved in acetone (10 mg in 20 mL), which was slowly added to kaolin (10 g). The solution was heated to 30° C. and the solvent allowed to slowly evaporate with mixing.
A small amount of the product was dissolved in methylene chloride (50 mg in 30 mL), which was slowly added to kaolin (5 g). The suspension was heated to 30° C. and the solvent allowed to slowly evaporate with mixing.

Molecules are shown by their SMILES. “Also recorded” adds a separate entry of the source.

The source of these data is patent US7705144B2, “Dyes of improved optical brightness and/or fluorescence and compositions containing them” (priority 2007, dated 2010).

With `N=C1C=CC(=C(c2ccc(N)cc2)c2ccc(N)cc2)C=C1` [pararosaniline], the “solubility in water of the precursor dye” value in data set [1] is given as “water soluble”.

With `CCCCCCCCOc1nc(Nc2cc3sc4cc(=[N+](C)C)ccc-4nc3cc2C)nc(N(c2ccccc2)c2ccccc2)n1` [Compound I], in data set [2], the “solubility in acetone, alcohol, and chlorinated solvents” value (from here on “solubility in acetone, alcohol”) is “show solubility”; the “solubility in mineral oil” value is “insoluble”; the solubility in water result was “insoluble”. Moreover, the solubility in methanol result in data set [2] (methanol) is reported as “soluble”. In data set [3], the “stability of the resulting powder in oil and in water” value is “stable in oil and in water”.

Take `CC1CCC(Oc2nc(Nc3ccc(CO)cc3)nc(OC3CCC(C)CC3C(C)C)n2)C(C(C)C)C1` (stereo not shown) [Compound III]: the “solubility in organic solvents” value in data set [2] is reported as “soluble only in alcohol or acetone”. In addition, the “stability of the resulting powder in oil and in water” value in data set [3] is “stable in water and in mineral oil”.

`Cc1cc2nc3ccc(N(C)C)cc3[s+]c2cc1N.[Cl-]` [toluidine blue O]: the “solubility in water of the precursor dye” value in data set [1] is listed as “water soluble”.

Consider `C=Cc1ccc(Nc2nc(OCCCCCCCC)nc(Oc3ccc(C(c4ccccc4)(c4ccccc4)c4ccccc4)cc3)n2)cc1` [Compound II], for which, in data set [2], the “solubility in acetone, alcohol” value is on record as “show solubility”; the “solubility in mineral oil” value was “insoluble”; the solubility in water result is “insoluble”; the “solubility in organic solvents” value is “solubility only to dichloromethane and toluene; also recorded: only soluble in boiling toluene or dichloromethane”. For the same molecule, the “solubility in organic solvents” value in data set [2] (listed as Example 2) was “insoluble to common organic solvents, except for hot dichloromethane and toluene”.

As for `CC1CCC(Oc2nc(Oc3ccc4c(-c5ccccc5C(=O)O)c5ccc(=O)cc-5oc4c3)nc(OC3CCC(C)CC3C(C)C)n2)C(C(C)C)C1` (stereo not shown) [Compound IV], in data set [2], the “solubility in acetone, alcohol” value was “dissolves”; the “solubility in mineral oil” value is listed as “insoluble”; the solubility in water entry was “not soluble”; the “solubility in organic solvents” value is “soluble only in alcohol or acetone”.

For the molecule `O=C1OC2(c3ccc(O)cc3Oc3cc(O)ccc32)c2ccccc21` [fluorescein], the “solubility in water of the precursor dye” value in data set [1] is recorded as “soluble in water”.
